Source: ChEMBL document CHEMBL3039007, “Structure-based identification of OATP1B1/3 inhibitors” (Mol Pharmacol, 2013)

Tests used:
[1] = biological target: T1, Solute carrier organic anion transporter family member 1B1 (Homo sapiens, UniProt Q9Y6L6); conditions: chinese hamster, cho, 10 µM
T1 sequence (Q9Y6L6 whole entry): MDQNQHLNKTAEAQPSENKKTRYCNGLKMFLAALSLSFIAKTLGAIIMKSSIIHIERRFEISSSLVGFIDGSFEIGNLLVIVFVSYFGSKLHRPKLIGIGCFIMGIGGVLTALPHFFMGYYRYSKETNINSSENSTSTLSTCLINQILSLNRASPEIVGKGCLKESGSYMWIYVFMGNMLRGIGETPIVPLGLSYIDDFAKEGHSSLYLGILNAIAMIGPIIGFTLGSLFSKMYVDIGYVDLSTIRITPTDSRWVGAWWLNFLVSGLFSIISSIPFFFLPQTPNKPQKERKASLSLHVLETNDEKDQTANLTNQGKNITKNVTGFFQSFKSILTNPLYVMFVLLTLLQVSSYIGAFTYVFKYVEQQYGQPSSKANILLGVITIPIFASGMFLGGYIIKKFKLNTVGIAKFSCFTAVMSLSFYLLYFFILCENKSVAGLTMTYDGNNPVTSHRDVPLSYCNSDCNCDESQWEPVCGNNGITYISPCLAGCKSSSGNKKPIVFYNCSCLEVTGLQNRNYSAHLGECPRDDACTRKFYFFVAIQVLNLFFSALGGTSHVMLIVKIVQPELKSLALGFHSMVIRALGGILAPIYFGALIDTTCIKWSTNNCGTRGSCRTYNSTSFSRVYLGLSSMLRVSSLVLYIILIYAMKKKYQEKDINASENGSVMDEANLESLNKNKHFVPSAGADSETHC

[2] = biological target: T2, Solute carrier organic anion transporter family member 1B3 (Homo sapiens, UniProt Q9NPD5); conditions: chinese hamster, cho, 10 µM
T2 sequence (Q9NPD5 whole entry): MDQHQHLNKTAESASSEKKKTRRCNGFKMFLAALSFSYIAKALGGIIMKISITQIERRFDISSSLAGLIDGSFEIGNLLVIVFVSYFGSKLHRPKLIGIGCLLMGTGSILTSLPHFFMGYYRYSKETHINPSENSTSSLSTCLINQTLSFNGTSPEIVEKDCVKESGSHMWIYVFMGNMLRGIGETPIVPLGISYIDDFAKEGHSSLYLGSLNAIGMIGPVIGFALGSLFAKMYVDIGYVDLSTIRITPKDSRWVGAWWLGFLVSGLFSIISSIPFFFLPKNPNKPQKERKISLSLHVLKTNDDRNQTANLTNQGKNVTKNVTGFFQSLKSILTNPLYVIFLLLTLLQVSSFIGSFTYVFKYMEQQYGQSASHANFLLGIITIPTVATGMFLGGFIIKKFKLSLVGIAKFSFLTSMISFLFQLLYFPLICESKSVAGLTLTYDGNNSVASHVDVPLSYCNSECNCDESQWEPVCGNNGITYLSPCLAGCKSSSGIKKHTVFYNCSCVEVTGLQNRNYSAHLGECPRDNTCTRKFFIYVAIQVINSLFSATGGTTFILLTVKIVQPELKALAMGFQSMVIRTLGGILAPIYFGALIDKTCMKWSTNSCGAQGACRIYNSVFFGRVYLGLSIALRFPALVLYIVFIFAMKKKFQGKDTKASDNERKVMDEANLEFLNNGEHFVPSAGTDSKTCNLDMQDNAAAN

Cc1c(C(=O)O)c(O)cc2c1C(=O)c1c(O)c([C@@H]3O[C@H](CO)[C@@H](O)[C@H](O)[C@H]3O)c(O)c(O)c1C2=O [CARMINIC ACID]
residual activity [1]: 21.61% | residual activity [2]: 121.9%

CCCCCCNC(=O)n1cc(F)c(=O)[nH]c1=O [CARMOFUR]
residual activity [1]: 107% | residual activity [2]: 98.17%

NCCC(=O)N[C@@H](Cc1cnc[nH]1)C(=O)O [CARNOSINE]
residual activity [1]: 26.44% | residual activity [2]: 98.86%

CC(C(=O)O)c1ccc2c(c1)[nH]c1ccc(Cl)cc12 (centres undefined) [CARPROFEN]
residual activity [1]: 47.72% | residual activity [2]: 77.78%

CC(=O)Oc1cc(OC(C)=O)c2c(c1)O[C@H](c1ccc(OC(C)=O)c(OC(C)=O)c1)[C@@H](OC(C)=O)C2 [CATECHIN PENTAACETATE]
residual activity [1]: 82.47% | residual activity [2]: 104.9%

O=C(Oc1cc(OC(=O)c2ccccc2)c2c(c1)O[C@H](c1ccc(OC(=O)c3ccccc3)c(OC(=O)c3ccccc3)c1)[C@@H](OC(=O)c1ccccc1)C2)c1ccccc1 [CATECHIN PENTABENZOATE]
residual activity [1]: 113.2% | residual activity [2]: 118.6%

COc1cc(O)c(C(=O)c2ccccc2)cc1O [CEAROIN]
residual activity [1]: 91.48% | residual activity [2]: 120.9%

CC1(C)C(=O)C=C[C@@]2(C)C1=C(O)C(=O)[C@]1(C)[C@@H]2CC[C@@]2(C)[C@H](c3ccoc3)C[C@H]3O[C@]321 [CEDRELONE]
residual activity [1]: 44.73% | residual activity [2]: 60.66%

C[C@@H]1CC[C@H]2C(C)(C)[C@H]3C[C@@]12CC[C@@]3(C)O [CEDROL]
residual activity [1]: 119.8% | residual activity [2]: 107.7%

CC(=O)O[C@]1(C)CC[C@@]23C[C@H]1C(C)(C)[C@@H]2CC[C@H]3C [CEDRYL ACETATE]
residual activity [1]: 134% | residual activity [2]: 116.5%

N[C@@H](C(=O)N[C@@H]1C(=O)N2C(C(=O)O)=C(Cl)CS[C@H]12)c1ccccc1 [CEFACLOR ANHYDROUS]
residual activity [1]: 84.74% | residual activity [2]: 114.4%

CC1=C(C(=O)O)N2C(=O)[C@@H](NC(=O)[C@H](N)c3ccc(O)cc3)[C@H]2SC1 [CEFADROXIL]
residual activity [1]: 88.52% | residual activity [2]: 101.2%

Cn1nnnc1SCC1=C(C(=O)[O-])N2C(=O)[C@@H](NC(=O)[C@H](OC=O)c3ccccc3)[C@H]2SC1.[Na+] [CEFAMANDOLE NAFATE]
residual activity [1]: 63% | residual activity [2]: 64.97%

Cc1nnc(SCC2=C(C(=O)[O-])N3C(=O)[C@@H](NC(=O)Cn4cnnn4)[C@H]3SC2)s1.[Na+] [CEFAZOLIN SODIUM]
residual activity [1]: 84.25% | residual activity [2]: 95.92%

CO/N=C(\C(=O)N[C@@H]1C(=O)N2C(C(=O)OCOC(=O)C(C)(C)C)=C(/C=C\c3scnc3C)CS[C@H]12)c1csc(N)n1 [CEFDITOREN PIVOXIL]
residual activity [1]: 64.03% | residual activity [2]: 82.75%

CO[C@@]1(NC(=O)CSCC#N)C(=O)N2C(C(=O)[O-])=C(CSc3nnnn3C)CS[C@@H]21.[Na+] [CEFMETAZOLE SODIUM]
residual activity [1]: 123.3% | residual activity [2]: 108.6%

CO/N=C(\C(=O)N[C@@H]1C(=O)N2C(C(=O)[O-])=C(COC(C)=O)CS[C@H]12)c1csc(N)n1.[Na+] [CEFOTAXIME SODIUM]
residual activity [1]: 104.1% | residual activity [2]: 119.2%

CO[C@@]1(NC(=O)Cc2cccs2)C(=O)N2C(C(=O)[O-])=C(COC(N)=O)CS[C@@H]21.[Na+] [CEFOXITIN SODIUM]
residual activity [1]: 68.58% | residual activity [2]: 82.79%

NC(=O)c1cc[n+](CC2=C(C(=O)[O-])N3C(=O)[C@@H](NC(=O)[C@@H](c4ccccc4)S(=O)(=O)[O-])[C@H]3SC2)cc1.[Na+] [CEFSULODIN SODIUM]
residual activity [1]: 91.84% | residual activity [2]: 101.2%

Nc1nc(/C(=C/CC(=O)O)C(=O)N[C@@H]2C(=O)N3C(C(=O)O)=CCS[C@H]23)cs1 [CEFTIBUTEN]
residual activity [1]: 90.54% | residual activity [2]: 84.47%

CO/N=C(\C(=O)N[C@@H]1C(=O)N2C(C(=O)[O-])=C(COC(N)=O)CS[C@H]12)c1ccco1.[Na+] [CEFUROXIME SODIUM]
residual activity [1]: 64.47% | residual activity [2]: 83.34%

CC1=C(O)C(=O)C=C2C1=CC=C1[C@@]2(C)CC[C@@]2(C)[C@@H]3C[C@](C)(C(=O)O)CC[C@]3(C)CC[C@]12C [CELASTROL]
residual activity [1]: 147.4% | residual activity [2]: 90.72%

Cc1ccc(-c2cc(C(F)(F)F)nn2-c2ccc(S(N)(=O)=O)cc2)cc1 [CELECOXIB]
residual activity [1]: 108.3% | residual activity [2]: 142.8%

OC[C@H]1O[C@@H](O[C@H]2[C@H](O)[C@@H](O)[C@@H](O)O[C@@H]2CO)[C@H](O)[C@@H](O)[C@@H]1O [CELLBIOSE]
residual activity [1]: 90.6% | residual activity [2]: 109.6%

CN(C)CCOC(=O)COc1ccc(Cl)cc1.Cl [CENTROPHENOXINE HYDROCHLORIDE]
residual activity [1]: 70.12% | residual activity [2]: 88.3%

CC1=C(C(=O)O)N2C(=O)[C@@H](NC(=O)[C@H](N)c3ccccc3)[C@H]2SC1 [CEPHALEXIN ANHYDROUS]
residual activity [1]: 94.03% | residual activity [2]: 89.2%

O=C(Cc1cccs1)N[C@@H]1C(=O)N2C(C(=O)[O-])=C(C[n+]3ccccc3)CS[C@H]12 [CEPHALORIDINE]
residual activity [1]: 14.22% | residual activity [2]: 31.99%

COC1=C[C@]23CCCN2CCc2cc4c(cc2[C@@H]3[C@@H]1O)OCO4 [CEPHALOTAXINE]
residual activity [1]: 77.26% | residual activity [2]: 77.89%

CC(=O)OCC1=C(C(=O)[O-])N2C(=O)[C@@H](NC(=O)Cc3cccs3)[C@H]2SC1.[Na+] [CEPHALOTHIN SODIUM]
residual activity [1]: 45.11% | residual activity [2]: 66.3%

CC(=O)OCC1=C(C(=O)[O-])N2C(=O)[C@@H](NC(=O)CSc3ccncc3)[C@H]2SC1.[Na+] [CEPHAPIRIN SODIUM]
residual activity [1]: 85.65% | residual activity [2]: 94.33%

COc1ccc2cc1Oc1ccc(cc1)C[C@H]1c3c(cc4c(c3Oc3cc5c(cc3OC)CCN(C)[C@@H]5C2)OCO4)CCN1C [CEPHARANTHINE]
residual activity [1]: 91.94% | residual activity [2]: 125.1%

C/C=C(/C)C(=O)O[C@H]1CC[C@@]2(C)[C@@H]3CC[C@H]4[C@]5(O)C[C@H](O)[C@@]6(O)[C@@H](CN7C[C@@H](C)CC[C@H]7[C@@]6(C)O)[C@]5(O)C[C@@]42O[C@]13O [CEVADINE]
residual activity [1]: 78.54% | residual activity [2]: 84.71%

CCOC(=O)CCCCCCCCCCCCC1C=CCC1 (centres undefined) [CHAULMOOGRIC ACID, ETHYL ESTER]
residual activity [1]: 108.7% | residual activity [2]: 92.79%

O=C(O)CCCCCCCCCCCC[C@@H]1C=CCC1 [CHAULMOOGRIC ACID]
residual activity [1]: 83.53% | residual activity [2]: 82.39%

O=C(CCCCCCCCCCCCC1CCCC1)Nc1ccc(S(=O)(=O)c2ccc(NC(=O)CCCCCCCCCCCCC3CCCC3)cc2)cc1 [CHAULMOSULFONE]
residual activity [1]: 65.99% | residual activity [2]: 75.08%

CN1Cc2c(ccc3c2OCO3)C2C(O)Cc3cc4c(cc3C21)OCO4 (stereo not drawn) [CHELIDONINE (+)]
residual activity [1]: 59.5% | residual activity [2]: 82.29%

C[C@H](CCC(=O)O)[C@H]1CC[C@H]2[C@@H]3[C@H](O)C[C@@H]4C[C@H](O)CC[C@]4(C)[C@H]3CC[C@]12C [CHENODIOL]
residual activity [1]: 37.88% | residual activity [2]: 71.62%

O=C(O)CCCc1ccc(N(CCCl)CCCl)cc1 [CHLORAMBUCIL]
residual activity [1]: 123.9% | residual activity [2]: 102.7%

O=C1C(Cl)=C(Cl)C(=O)C(Cl)=C1Cl [CHLORANIL]
residual activity [1]: 80.53% | residual activity [2]: 74.83%

ClC1=C(Cl)C2(Cl)C3C(Cl)C(Cl)CC3C1(Cl)C2(Cl)Cl (centres undefined) [CHLORDANE]
residual activity [1]: 98.3% | residual activity [2]: 121.6%

CC(=O)O[C@]1(C(C)=O)CC[C@H]2[C@@H]3C=C(Cl)C4=CC(=O)CC[C@]4(C)[C@H]3CC[C@@]21C [CHLORMADINONE ACETATE]
residual activity [1]: 9.748% | residual activity [2]: 24.36%

CN1C(=O)CCS(=O)(=O)C1c1ccc(Cl)cc1 (centres undefined) [CHLORMEZANONE]
residual activity [1]: 97.47% | residual activity [2]: 92%
